Measured values: patent US8017144B2, “Controlled release polymeric compositions of bone growth promoting compounds” (Pfizer Inc., priority 2001, dated 2011)
Values joined by “and” are separate entries in the source; they are usually repeats but may differ in a detail not shown here. Equal entries are not always repeated.

How the values were obtained:
[1] = test system: subperiosteum of the femur; assay: Rat periosteal injection model; format: in vivo, Male Sprague-Dawley rats; settings: single injection in a polymer formulation, day 15
Procedure: Male Sprague-Dawley rats at 3 weeks of age were used. The rats were anesthetized with isoflurane inhalation ([…]) in a conduction chamber located in a fume hood. The right hindlimb of each rat was shaved and cleaned. A 25 G needle attached with a Hamilton syringe pre-filled with testing solution was used for the local injection. The solution was injected onto the subperiosteum of the anterior, mid-diaphyseal region of femur in a volume of 5 to 10 ul for various days. On day 15, the rats were sacrificed and the femurs were collected for analysis. (See, e.g., M. E. Joyce, A. B. Roberts, M. B. Sporn and M. Bolander, “Transforming growth factor-β and the initiation of chondrogenesis and osteogenesis in the rat femur,” The Journal of Cell Biology 110:2195-2207 (1990).) On day one, the right femurs of male Sprague-Dawley rats received single injection of vehicle or test compound in a polymer formulation. The test compound was the sodium salt of (3-(((4-tert-butyl-benzyl)-(pyridine-3-sulfonyl)-amino)-methyl)-phenoxy)-acetic acid. On day 15, all rats were sacrificed and the right femurs were collected for analysis. Periosteal bone induction was assessed by using radiography and dual-energy X-ray absorptiometry (DEXA).

[2] = test system: 1.5 cm segmental defect in the midulna; assay: Dog ulnar segmental defect model; format: in vivo, dogs
From the text: The ulnar segmental defect model was used to test the efficacy of a single dose of the test compound (which was the sodium salt of (3-(((4-tert-butyl-benzyl)-(pyridine-3-sulfonyl)-amino)-methyl)-phenoxy)-acetic acid) in a PLGH formulation ([…]). The protocol was modified as follows: With animals under general anesthesia, the foreleg was prepped and draped in sterile fashion. A lateral incision approximately 10 cm in length was made and the ulna was exposed extraperiostally. Periosteum was cut and moved to the proximal and distal parts of the incision. Then a 1.5 cm segmental defect was made in the midulna using a pendular saw. The radius and the remaining interosseal membrane were left intact. The defect site was irrigated with saline to remove bone debris. The site was then filled with test compound in a slow-release matrix formulation, as described above. The dogs were divided into the following groups.
Radiographs of the forelimbs were obtained immediately following surgery and every two weeks thereafter until the termination of the study. Radiographs were graded on a 0 to 6 scale (Table 2).

right femoral fracture = assay: Rat femoral transverse fracture model; format: in vivo, Male Sprague-Dawley rats; settings: single percutaneous injection to fracture site immediately after surgery; 50 mg/ml, 300 ul, 15 mg/rat; day 21
Procedure: Male Sprague-Dawley rats at 3 to 4 months of age were used. The animals were anesthetized with ketamine and xylazine at doses of 100 and 10 mg/kg, respectively. The right hindlimb of each rat was shaved and cleaned. A 1 cm incision was made just lateral to the patella and the femoral condyle was exposed. A Kirschner wire (0.045″ in diameter) was introduced into the intramedullary canal through the intercondylar portion to serve as an internal stabilization. The muscle incision was closed with Vicryl® and the skin incision was closed with stainless steel wound clips. The mid-diaphysis of the pinned femur was fractured by means of a three-point bending device driven by a dropped weight. The rats were permitted full weight-bearing and unrestricted activity after awakening from anesthesia. The test agents were administered on various days after surgery by percutaneous injection onto the fracture site. The animals were sacrificed on various days after treatment and the femurs were collected for analysis. Fracture healing was evaluated by using radiography, histomorphometry and biomechanical test. (See, e.g., F. Bonnarens and T. A. Einhorn, “Production of a standard closed fracture in laboratory animal bone,” Journal of Orthopaedic Research 2:97-101 (1984).)
Male Sprague-Dawley rats at 3 to 4 months of age were subjected to right femoral fracture. […]

[3] = test system: osteotomy on the distal portion of the dog tibia; assay: Canine tibial osteotomy model; format: in vivo, Beagle male dogs; settings: RG502H/NMP, 8 weeks, sodium salt
From the text: Normal fracture healing usually represents a biologically optimum healing process, as a result detecting an acceleration of healing in pre-clinical models that heal rapidly is both difficult and challenging. The test compound (which was the sodium salt of (3-(((4-tert-butyl-benzyl)-(pyridine-3-sulfonyl)-amino)-methyl)-phenoxy)-acetic acid) in a PLGH formulation (50% 50:50 PLGH (RG502H Grade)/50% NMP) was studied to determine its effect on accelerating healing in a rapidly healing canine osteotomy model. Enhancement of healing in this model supports potential applications of the test compound to heal normal fractures in humans since humans tend to heal fractures more slowly.
Beagle male dogs 12±3 kg, 14 months of age were used for the study. Dogs were divided into four groups of three to four animals each.
With animals under general anesthesia, the hindleg was prepped and draped in sterile fashion. A lateral incision approximately 4 cm in length was made. Surgical osteotomy was made on the distal portion of the dog tibia using a Gigli saw. The defect was stabilized using an AO plate. The fibula and the remaining interosseal membrane was left intact and the defect site was irrigated with saline to remove bone debris. The site was then filled with carrier as described above. Following surgery, animals were allowed full weight-bearing activity, and water and food ad libitum. […]

CC(C)(C)c1ccc(CN(Cc2cccc(OCC(=O)[O-])c2)S(=O)(=O)c2cccnc2)cc1.[Na+] [test compound, (3-(((4-tert-butyl-benzyl)-(pyridine-3-sulfonyl)-amino)-methyl)-phenoxy)-acetic acid, sodium salt]
bone mineral content (BMC) of the injected region of the femur by DEXA vs vehicle [1]: significantly increased
periosteal bone induction by radiography ([1]; anterior aspect of right femur): new bone formation
efficacy in formulation containing RG503H Grade ([2]; 50 mg/ml in 50% 50:50 PLGH (RG503H Grade)/50% NMP): did not work well
union compared to RG502H Grade formulation ([2]; 50 mg/ml in 50% 50:50 PLGH (RG503H Grade)/50% NMP, union achieved in some dogs): delayed
treated animals healed, overall ([2]; all treated groups vs none for vehicle controls): 70-75%
remodeling of newly formed bone ([2]; by week 24, slow release matrix formulation RG502H/NMP): remodeled back to the same shape and size as the contralateral bone
Complete rebridging/number of dogs ([2]; group B: 50 mg (1 ml of 50 mg/ml formulation), RG502H/NMP): 2/4
Complete rebridging/number of dogs ([2]; group C: 10 mg (1 ml of 10 mg/ml formulation), RG502H/NMP): 9/12
Radiographic response ([2]; group C: 10 mg (1 ml of 10 mg/ml formulation), RG502H/NMP, two dogs): did not respond.
Complete rebridging/number of dogs ([2]; group D: 10 mg (0.2 ml of 50 mg/ml formulation), RG502H/NMP): 3/4
rebridgement of defect after a single application ([2]; groups B, C and D, slow release matrix formulation RG502H/NMP): complete rebridgement
calluses as assessed by radiography vs vehicle (right femoral fracture): larger and denser calluses
Rebridging/number of dogs ([3]; group C: 5 mg (0.5 ml of 10 mg/ml formulation)): Four out of four and 4/4
Rebridging/number of dogs ([3]; group D: 25 mg (0.5 ml of 50 mg/ml formulation)): the other three showed significant healing and 3/4
